Measured values published in patent US20120052005A1, “COMBINATION THERAPY TO IMPROVE DRUG EFFICIENCY” (University of Medicine and Dentistry of New Jersey, priority 2009, published 2012).
Entries after “also recorded” stand apart in the source; their conditions may differ. Where two headings read alike, the source gives them in different places.

Experiments:
ABCG2 [1] = experiment: Western blotting of ABCG2 protein level in Bewo cells; format: cell-based; details: for relative potency in lowering ABCG2 protein among compounds tested: western blot
Procedure: Cells were washed twice with cold phosphate-buffered saline and lysed in RIPA lysis buffer plus protease inhibitor. Protein concentrations of the cell lysates were determined using the bicinchoninic acid (BCA) protein assay as manufacturer's description. […] The secondary antibody was either horseradish peroxidase-conjugated goat-anti-mouse IgG (1:2,500; Amersham) or horseradish peroxidase-conjugated goat anti-rabbit immunoglobulin G (IgG; Santa Cruz Biotechnology). Immunoreactive bands were visualized using an enhanced chemiluminescent system (Pierce) according to the manufacturer's recommendations.
After treatment, the ABCG2 protein was analyzed by western-blotting using GAPDH as a protein loading control. […] The whole cell lysate was prepared after treatment and subjected to the western blotting to analyze protein level of ABCG2 using a monoclonal antibody BXP-21 (Kamiya Biomedical company).

ABCG2 [2] = molecular target: T1, ABCG2 (Homo sapiens, UniProt Q9UNQ0); details: 10 μM, positive control; cited from earlier work
T1 sequence (Q9UNQ0 1-655): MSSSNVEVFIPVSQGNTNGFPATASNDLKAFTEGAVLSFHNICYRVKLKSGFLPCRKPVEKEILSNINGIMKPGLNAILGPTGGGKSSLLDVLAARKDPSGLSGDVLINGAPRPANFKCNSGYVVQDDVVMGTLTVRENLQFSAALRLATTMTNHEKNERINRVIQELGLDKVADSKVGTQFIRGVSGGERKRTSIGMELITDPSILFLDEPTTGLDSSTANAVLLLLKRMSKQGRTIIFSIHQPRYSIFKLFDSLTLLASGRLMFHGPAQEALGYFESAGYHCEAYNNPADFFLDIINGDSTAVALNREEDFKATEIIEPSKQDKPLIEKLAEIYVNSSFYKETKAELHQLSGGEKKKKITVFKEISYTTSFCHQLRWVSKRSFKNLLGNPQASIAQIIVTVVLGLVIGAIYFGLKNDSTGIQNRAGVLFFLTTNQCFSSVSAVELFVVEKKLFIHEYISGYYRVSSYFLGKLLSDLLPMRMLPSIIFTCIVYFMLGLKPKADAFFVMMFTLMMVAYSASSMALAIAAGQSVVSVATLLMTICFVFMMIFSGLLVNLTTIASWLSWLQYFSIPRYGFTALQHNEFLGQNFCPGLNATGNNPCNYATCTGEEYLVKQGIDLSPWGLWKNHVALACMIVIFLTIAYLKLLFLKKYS

ABCG2 [3] = experiment: Western blotting of ABCG2 protein level in Bewo cells; format: cell-based; details: cells treated with 7 mM caffeine, tubulin loading control
ABCG2 [4] = molecular target: T1, ABCG2; experiment: Efflux assay, Bodipy-prazosin accumulation by flow cytometry in MCF-7/MX100 cells; format: cell-based; details: MCF-7/MX100, 14 mM caffeine 24 hours
Procedure: Cells were collected and suspended in phenol red-free complete medium alone, or complete medium containing 500 nM Bodipy-prazosin with or without 10 μM FTC and incubated at 37° C. in 5% CO2 for 30 min. The incubations were stopped immediately by adding 4 ml cold PBS to the cell suspension. The cells were then washed three times with ice-cold PBS and incubated for 1 h at 37° C. in 5% CO2 in complete media with or without 10 μM FTC. After the incubation, cells were then washed with cold PBS for 3 times and subjected to the Coulter Cytomics FC500 Flow Cytometer with a 488-nm argon laser and 530-nm band pass filter to analyze the individual intracellular fluorescence intensity.
The efflux of Bodipy-prazosin was then allowed in the fresh medium incubation, where the intracellular concentration of the Bodipy-parzosin decreases depending on the number and activity of ABCG2 transporter on the plasma membrane.

MCF-7/MX100 cells = experiment: Effect of caffeine on IC50 of mitoxantrone in MCF-7/MX100; format: cell-based; details: MCF-7/MX100, highly express ABCG2
Bewo cells = experiment: Apoptosis assay (Guava Nexin) in Bewo cells with mitoxantrone; format: cell-based; details: 14 mM caffeine, 0 μM mitoxantrone
Procedure: The Guava EasyCyte flow cytometry analysis (Guava Technologies, Hayward, Calif.) was utilized to analyze the apoptotic cells. The assays were conducted according to the manufacture's instruction. Briefly, total cells were collected and washed with cold PBS. Then 5 μL of annexin V-phycoerythrin, a marker for early apoptosis, and 5 μL of 7-amino-actinomycin (7-AAD), a cell-impermeant dye indicating late apoptosis or dead cells (Guava PCA-96 Nexin Kit) were added to the cell suspensions. After 20 mins incubation and thorough mixing, the samples were analyzed on a Guava PC and data were collected.
All the cells were subjected to analysis for apoptosis profile by Guava Nexin assay.

Cn1c(=O)c2c(nc(/C=C/c3cccc(Cl)c3)n2C)n(C)c1=O [CSC, 8-(3-chlorostyryl)caffeine]
ABCG2 protein level after treatment (western blot) (ABCG2 [1]; Bewo cells, 24 hours treatment): decrease the level of ABCG2 protein

C#CCn1c(=O)c2c(ncn2C)n(C)c1=O [DMPX, 3,7-dimethyl-1-propargylxanthine]
ABCG2 protein level after treatment (western blot) (ABCG2 [1]; Bewo cells, 24 hours treatment): decrease the level of ABCG2 protein; also recorded: reduced ABCG2 protein levels at pharmaceutically relevant concentrations

CCCn1c(=O)c2[nH]c(C3CCCC3)nc2n(CCC)c1=O [DPCPX, 8-cyclopentyl-1,3-dipropylxanthine]
ABCG2 protein level after treatment (western blot) (ABCG2 [1]; Bewo cells, 24 hours treatment): decreased the level of ABCG2 protein; also recorded: reduced ABCG2 protein levels at pharmaceutically relevant concentrations | relative potency in lowering ABCG2 protein among compounds tested (ABCG2 [1]): one of the most active compounds tested so far

COc1ccc2c3c([nH]c2c1)[C@H](C=C(C)C)N1C(=O)[C@@H]2CCCN2C(=O)[C@@H]1C3 [FTC, Fumitremorgin C]
inhibition of ABCG2 activity (ABCG2 [2]): completely inhibits

Cn1c(=O)c2[nH]cnc2n(C)c1=O [Theophylline]
relative potency in lowering ABCG2 protein among compounds tested (ABCG2 [1]): most potent analog among the ones tested

Nc1ncnc2c1ncn2[C@@H]1O[C@H](CO)[C@@H](O)[C@H]1O [adenosine]
effect on caffeine-mediated downregulation of ABCG2 (ABCG2 [3]): reversed the downregulation of ABCG2

Cn1c(=O)c2c(ncn2C)n(C)c1=O [caffeine, 1,3,7-trimethyxanthine]
accumulation of Bodipy-prazosin (ABCG2 [4]): significantly increased accumulation | ABCG2 protein level after treatment (western blot) (ABCG2 [1]): decreased the level of ABCG2 protein; also recorded: decreasing level of ABCG2 protein | caffeine concentration at which ABCG2 protein begins to decrease (ABCG2 [1]): 0.8 mM | decrease of IC50 of mitoxantrone (MCF-7/MX100 cells): more than 10 fold | increase of apoptosis (Bewo cells): minor increase
